Where “and” joins values, the source holds several entries; their conditions need not be identical. Equal values may be shown once.
Legend:
[1] = Acute intramuscular toxicity (LD50) in uninfected mice; details: mouse, in vivo, im, read-out: Approximate Acute Intramuscular LD50
Description: Approximate Acute Intramuscular LD50
Values in Uninfected Mice

[2] = tested on: Mature S. mansoni, Puerto Rican/Michigan strain; test: Primary screen in mice, single oral doses, mature S. mansoni infection (Puerto Rican/Michigan strain); type: in vivo
Description: (§1) The compounds of the invention are useful in the treatment of schistosomiasis. Compounds of this invention, when placed in the primary screen in mice described in Am. J. Trop.
(§2) Effects of Single Oral Doses (Aqueous Solutions ) of 2-Chloro-
(§3) 4-(4-alkyl-1-piperazinyl)benzenemethanol, N^ω -oxides Against
(§4) Mature S. mansoni Infections in Mice

[3] = tested on: Salmonella typhimurium TA-100; type: cell-based
Description: The compounds of this invention have the specific advantage over the corresponding des-N-oxide compounds in that the compounds are non-mutagenic in a test designed to determine mutagenicity which is described in J. Pharm. Exp. Therap., 200, 1 (1977).
Mutagenic Activity Using Salmonella typhimurium (TA-98 and TA-100)

[4] = tested on: Mature S. mansoni, Puerto Rican/Sterling Winthrop strain; test: Primary screen in mice, single oral doses, mature S. mansoni infection (Puerto Rican/Sterling Winthrop strain); type: in vivo
Description: as §1, §2, §3, §4

[5] = tested on: Mature S. mansoni, Puerto Rican/Walter Reed strain; test: Primary screen in mice, single oral doses, mature S. mansoni infection (Puerto Rican/Walter Reed strain); type: in vivo
Description: as §1, §2, §3, §4

[6] = tested on: Mature S. mansoni, St. Lucian strain; test: Primary screen in mice, single oral doses, mature S. mansoni infection (St. Lucian strain); type: in vivo
Description: as §1, §2, §3, §4

[7] = tested on: Mature S. mansoni, Brazilian strain; test: Primary screen in mice, single oral doses, mature S. mansoni infection (Brazilian strain); type: in vivo
Description: as §1, §2, §3, §4

[8] = tested on: Mature S. mansoni, Liberian strain; test: Primary screen in mice, single oral doses, mature S. mansoni infection (Liberian strain); type: in vivo
Description: as §1, §2, §3, §4

[9] = tested on: Mature S. mansoni (Puerto Rican/Walter Reed Strain); test: Secondary test in monkeys, mature S. mansoni infection; type: in vivo; details: monkeys (Cebus apella), 50 × 4 mg/kg
Description: The preferred compound of the invention, when placed in a secondary test in monkeys described in Am. J. Trop. Med. Hyg. 15, 705 (1966) gave the following data:
Effects of 2-chloro-4-(4-methyl-1-piperazinyl)benzenemethanol,
N^ω -oxide Against Mature S. mansoni (Puerto Rican/Walter Reed
Strain) Infections in Monkeys (Cebus apella)

SMILES: CCN1CCN(c2ccc(CO)c(Cl)c2)CC1 [C2 H5 des N-oxide, 2-chloro-4-(4-ethyl-1-piperazinyl)benzenemethanol, reference compound]
- LD50 [1]: 150 mg/kg

SMILES: CC[N+]1([O-])CCN(c2ccc(CO)c(Cl)c2)CC1 [C2 H5, 2-chloro-4-(4-ethyl-1-piperazinyl)benzenemethanol, N^ω -oxide]
- % Mice Cured ([2]; single oral dose 75 mg/kg): 71%
- % Reduction Live Worms ([2]; single oral dose 75 mg/kg): 92%
- LD50 [1]: > 250 mg/kg

SMILES: CN1CCN(c2ccc(CO)c(Cl)c2)CC1 [CH3 des N-oxide, 2-chloro-4-(4-methyl-1-piperazinyl)benzenemethanol, reference compound]
- Mutagenic activity, Revertants per n mole [3]: 0.1 Revertants per n mole
- LD50 [1]: 200 mg/kg

SMILES: C[N+]1([O-])CCN(c2ccc(CO)c(Cl)c2)CC1 [CH3, 2-chloro-4-(4-methyl-1-piperazinyl)benzenemethanol, N^ω -oxide]
- % Mice Cured ([2]; single oral dose 40 mg/kg): 43%
- % Reduction Live Worms ([2]; single oral dose 40 mg/kg): 79%
- % Mice Cured ([2]; single oral dose 75 mg/kg): 52%
- % Reduction Live Worms ([2]; single oral dose 75 mg/kg): 90%
- % Mice Cured ([2]; single oral dose 300 mg/kg): 87%
- % Reduction Live Worms ([2]; single oral dose 300 mg/kg): 99%
- % Mice Cured ([4]; single oral dose 40 mg/kg): 33%
- % Reduction Live Worms ([4]; single oral dose 40 mg/kg): 56%
- % Mice Cured ([4]; single oral dose 75 mg/kg): 60%
- % Reduction Live Worms ([4]; single oral dose 75 mg/kg): 69%
- % Mice Cured ([5]; single oral dose 100 mg/kg): 100%
- % Reduction Live Worms ([5]; single oral dose 100 mg/kg): 100%
- % Mice Cured ([6]; single oral dose 150 mg/kg): 0%
- % Reduction Live Worms ([6]; single oral dose 150 mg/kg): 16%
- % Mice Cured ([7]; single oral dose 20 mg/kg): 0%
- % Reduction Live Worms ([7]; single oral dose 20 mg/kg): 73%
- % Mice Cured ([7]; single oral dose 40 mg/kg): 51%
- % Reduction Live Worms ([7]; single oral dose 40 mg/kg): 88%
- % Mice Cured ([8]; single oral dose 50 mg/kg): 0%
- % Reduction Live Worms ([8]; single oral dose 50 mg/kg): 25%
- Final Egg Count [9]: 0
- % Reduction Live Worms ([9]; N^ω -oxide, 4 mg/kg): 92% and 91%
- LD50 [1]: 1500 mg/kg

SMILES: CC(C)N1CCN(c2ccc(CO)c(Cl)c2)CC1 [CH(CH3)2 des N-oxide, 2-chloro-4-[4-(1-methylethyl)-1-piperazinyl]benzenemethanol, reference compound]
- LD50 [1]: 100 mg/kg

SMILES: CC(C)[N+]1([O-])CCN(c2ccc(CO)c(Cl)c2)CC1 [CH(CH3)2, 2-chloro-4-[4-(1-methylethyl)-1-piperazinyl]-benzenemethanol, N^ω -oxide]
- % Mice Cured ([2]; single oral dose 40 mg/kg): 19%
- % Reduction Live Worms ([2]; single oral dose 40 mg/kg): 57%
- % Mice Cured ([2]; single oral dose 75 mg/kg): 100%
- % Reduction Live Worms ([2]; single oral dose 75 mg/kg): 100%
- % Mice Cured ([2]; single oral dose 125 mg/kg): 57%
- % Reduction Live Worms ([2]; single oral dose 125 mg/kg): 90%
- % Mice Cured ([4]; single oral dose 75 mg/kg): 0%
- % Reduction Live Worms ([4]; single oral dose 75 mg/kg): 25%
- % Mice Cured ([5]; single oral dose 40 mg/kg): 75%
- % Reduction Live Worms ([5]; single oral dose 40 mg/kg): 96%
- % Mice Cured ([5]; single oral dose 75 mg/kg): 72%
- % Reduction Live Worms ([5]; single oral dose 75 mg/kg): 85%
- % Mice Cured ([6]; single oral dose 40 mg/kg): 0%
- % Reduction Live Worms ([6]; single oral dose 40 mg/kg): 50%
- % Mice Cured ([6]; single oral dose 75 mg/kg): 57%
- % Reduction Live Worms ([6]; single oral dose 75 mg/kg): 75%
- % Mice Cured ([7]; single oral dose 40 mg/kg): 0%
- % Reduction Live Worms ([7]; single oral dose 40 mg/kg): 32%
- % Mice Cured ([8]; single oral dose 75 mg/kg): 0%
- % Reduction Live Worms ([8]; single oral dose 75 mg/kg): 42%
- % Mice Cured ([8]; single oral dose 125 mg/kg): 100%
- % Reduction Live Worms ([8]; single oral dose 125 mg/kg): 100%
- Mutagenic activity, Revertants per n mole [3]: 0.007 Revertants per n mole
- LD50 [1]: > 1500 mg/kg
